Measurements reported in patent US20240408169A1 (priority 2023, published 2024).
Like-named read-outs stand apart in the source and are kept apart here. *1 amine or outer side, *2 acyl side, *3 side chain or, on linkers, in order; H or OH if unused. Where a SMILES comes first, the peptide text is derived from it. Bridges are numbered along the chain shown (N, C = ends). [ ]: non-standard residue; d: D form. The star is where a group is joined. X101 = CN([C@@H](Cc1cc(Cl)ccc1-c1cnn(C2CS(=O)(=O)C2)c1)C(=O)[*:2])[*:1]; X61 = Cc1nc2c(F)cc(-c3ccc(Cl)cc3C[C@@H](C(=O)[*:2])N(C)[*:1])cc2n1C(C)C; X72 = CN([C@@H](Cc1cc(Cl)ccc1-c1cnn(C2CCS(=O)(=O)C2)c1)C(=O)[*:2])[*:1]; X13 = CN([C@@H](Cc1cc(Cl)ccc1-c1cnn(CCS(C)(=O)=O)c1)C(=O)[*:2])[*:1]; X55 = CN([C@@H](Cc1cc(Cl)ccc1-c1cnn(CCN2CCOCC2)c1)C(=O)[*:2])[*:1]; X82 = CN([C@@H](Cc1cc(Cl)ccc1-c1cnn(S(C)(=O)=O)c1)C(=O)[*:2])[*:1]; X16 = CN([C@@H](Cc1cc(Cl)ccc1-c1cnc2c(cnn2C)c1)C(=O)[*:2])[*:1]; X30 = CN([C@@H](Cc1cc(Cl)ccc1-c1ccc2c(c1)ncn2C)C(=O)[*:2])[*:1]; X99 = CC(=O)N1CCC(Oc2ccc(Cl)cc2C[C@@H](C(=O)[*:2])N(C)[*:1])CC1; X111 = CN([C@@H](Cc1cc(Cl)ccc1-c1nnc(C2CC2)o1)C(=O)[*:2])[*:1]; X113 = Cc1cc(-c2ccc(Cl)cc2C[C@@H](C(=O)[*:2])N(C)[*:1])n(C)n1; X19 = CN([C@@H](Cc1cc(Cl)ccc1-c1ccn2ccnc2c1)C(=O)[*:2])[*:1]; X83 = CN([C@@H](Cc1cc(Cl)ccc1-c1cnn2c1COCC2)C(=O)[*:2])[*:1]; NMe3Pal(2-OiBu,5-Cl) = CN[C@@H](Cc1cc(Cl)cnc1OCC(C)C)C(=O)O; NMehhhLys(Me) = CN([C@@H](CCCCCCCN(C)[*:3])C(=O)[*:2])[*:1]; X2 = CN([C@@H](Cc1cc(Cl)ccc1-c1ccc2ncnn2c1)C(=O)[*:2])[*:1]; X67 = Cc1c(-c2ccc(Cl)cc2C[C@@H](C(=O)[*:2])N(C)[*:1])cnn1C; Cyclobutanecarbonyl(1-CF3) = O=C(C1(C(F)(F)F)CCC1)*; cBuCO(3,3-F2-1-CF3) = O=C(C1(C(F)(F)F)CC(F)(F)C1)*; Pro(trans-4-F) = O=C(O)[C@@H]1C[C@@H](F)CN1; Gly(cPr) = N[C@H](C(=O)O)C1CC1

How the values were obtained:
CyclinA2/CDK2 = biological target: T1, CyclinA2/CDK2 (Homo sapiens, UniProt P20248); assay: Fluorescence Polarization (FP) competitive binding assay, Cyclin A2/Cdk2;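 further: plates equilibrated two hours at room temperature before polarization reading, IC50 fitted from eight-concentration compound titration curves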
T1 construct: purchased CRELUX Protein Services

NCI-H1048 cells = assay: MTT proliferation assay, NCI-H1048; assay type: cell-based; conditions: 5 days compound exposure, 1:3 serial dilution starting at 10 μM;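 further: Dose-response in 96-well plates over 8 or 10 concentration points, with exposure spanning 3-4 cell doublings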
CyclinB1/CDK1 = biological target: T2, CyclinB1/CDK1 (Homo sapiens, UniProt P14635); assay: Fluorescence Polarization (FP) competitive binding assay, Cyclin B1/Cdk1;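 further: fluorescence polarization read after equilibration at room temperature, with IC50 taken from serially diluted dose-response curves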
T2 construct: purchased Eurofins, discovery 14-450

CyclinE1/CDK2 = biological target: T3, CyclinE1/CDK2 (Homo sapiens, UniProt P24864); assay: Fluorescence Polarization (FP) competitive binding assay, Cyclin E1/Cdk2;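 further: readings taken after two-hour equilibration at room temperature in HEPES buffer with NaCl, DTT, NP-40 and BSA, IC50 fitted from eight-concentration serial dilution series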
T3 construct: purchased Eurofins, discovery 14-475

WI-38 cells = assay: MTT proliferation assay, WI-38; assay type: cell-based; conditions: 3 days compound exposure, 1:3 serial dilution starting at 10 μM;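 further: Eight- or ten-point dilution series, with exposure length chosen to span about three to four cell doublings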
OVCAR3 cells = assay: MTT proliferation assay, OVCAR3; assay type: cell-based; conditions: 5 days compound exposure, 1:3 serial dilution starting at 10 μM;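 further: compound given as an 8- or 10-point series, one day after plating, with exposure covering roughly 3-4 cell doublings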
[1] = read-out: Cyclin B FP IC50; 10 nM Cyclin B1/Cdk1, 2 nM FAM probe; average of 2-3 independent experiments
[2] = 8 nM Cyclin A2/Cdk2, 2 nM FAM probe, average of 2-3 independent experiments, read-out: Cyclin A FP IC50
[3] = 10 nM Cyclin B1/Cdk1, 2 nM FAM probe; average of 2-3 independent experiments; read-out: Cyclin B FP IC50
[4] = 10 nM Cyclin E1/Cdk2, 2 nM FAM probe, average of 2-3 independent experiments, read-out: Cyclin E FP IC50

Row | Compound | IC50 (CyclinA2/CDK2) [nM] | GI50 (NCI-H1048 cells) [nM] | IC50 (CyclinB1/CDK1; [1]) [nM] | IC50 (CyclinE1/CDK2) [nM] | GI50 (WI-38 cells) [nM] | GI50 (OVCAR3 cells) [nM] | IC50 (CyclinA2/CDK2; [2]) [nM] | IC50 (CyclinB1/CDK1; [3]) [nM] | IC50 (CyclinE1/CDK2; [4]) [nM] | IC50 (CyclinA2/CDK2; read-out: Cyclin A FP IC50, 8 nM Cyclin A2/Cdk2, 2 nM FAM probe, average of 2-3 independent experiments) [nM]
1 | CC(C)COc1ncc(Cl)cc1C[C@H]1C(=O)N(C)CCCCCCC[C@H](N(C)C(=O)[C@@H](NC(=O)[C@@H]2C[C@@H](F)CN2C(=O)C2(C(F)(F)F)CCC2)C2CC2)C(=O)N[C@@H](CC(C)C)C(=O)N1C [Example 230] ({Cyclobutanecarbonyl(1-CF3)}-[Pro(trans-4-F)][Gly(cPr)][NMehhhLys(Me)]L[NMe3Pal(2-OiBu,5-Cl)]; lactam 3-C) | 30 | 40 | 20 | 140 | 5050 | 90 |  |  |  | 
2 | Cc1nc2c(F)cc(-c3ccc(Cl)cc3C[C@H]3C(=O)N(C)CCCCCCC[C@H](N(C)C(=O)[C@@H](NC(=O)[C@@H]4C[C@@H](F)CN4C(=O)C4(C(F)(F)F)CC(F)(F)C4)C4CC4)C(=O)N[C@@H](CC(C)C)C(=O)N3C)cc2n1C(C)C [Example 231] ({cBuCO(3,3-F2-1-CF3)}-[Pro(trans-4-F)][Gly(cPr)][NMehhhLys(Me)]L[X61]; lactam 3-C) | 60 | 20 | 20 | 2940 | 13400 | 40 |  |  |  | 
3 | CC(C)C[C@@H]1NC(=O)[C@@H](N(C)C(=O)[C@@H](NC(=O)[C@@H]2C[C@@H](F)CN2C(=O)C2(C(F)(F)F)CC(F)(F)C2)C2CC2)CCCCCCCN(C)C(=O)[C@H](Cc2cc(Cl)ccc2-c2ccc3ncnn3c2)N(C)C1=O [Example 232] ({cBuCO(3,3-F2-1-CF3)}-[Pro(trans-4-F)][Gly(cPr)][NMehhhLys(Me)]L[X2]; lactam 3-C) | 50 | 50 | 20 | 2870 | 11600 | 80 |  |  |  | 
4 | CC(C)C[C@@H]1NC(=O)[C@@H](N(C)C(=O)[C@@H](NC(=O)[C@@H]2C[C@@H](F)CN2C(=O)C2(C(F)(F)F)CC(F)(F)C2)C2CC2)CCCCCCCN(C)C(=O)[C@H](Cc2cc(Cl)ccc2-c2cnn3c2COCC3)N(C)C1=O [Example 233] ({cBuCO(3,3-F2-1-CF3)}-[Pro(trans-4-F)][Gly(cPr)][NMehhhLys(Me)]L[X83]; lactam 3-C) | 50 | 30 | 20 | 1600 | 15200 | 30 |  |  |  | 
5 | Cc1c(-c2ccc(Cl)cc2C[C@H]2C(=O)N(C)CCCCCCC[C@H](N(C)C(=O)[C@@H](NC(=O)[C@@H]3C[C@@H](F)CN3C(=O)C3(C(F)(F)F)CC(F)(F)C3)C3CC3)C(=O)N[C@@H](CC(C)C)C(=O)N2C)cnn1C [Example 234] ({cBuCO(3,3-F2-1-CF3)}-[Pro(trans-4-F)][Gly(cPr)][NMehhhLys(Me)]L[X67]; lactam 3-C) | 30 | 10 | 20 | 830 | 10700 | 10 |  |  |  | 
6 | Cc1cc(-c2ccc(Cl)cc2C[C@H]2C(=O)N(C)CCCCCCC[C@H](N(C)C(=O)[C@@H](NC(=O)[C@@H]3C[C@@H](F)CN3C(=O)C3(C(F)(F)F)CC(F)(F)C3)C3CC3)C(=O)N[C@@H](CC(C)C)C(=O)N2C)n(C)n1 [Example 235] ({cBuCO(3,3-F2-1-CF3)}-[Pro(trans-4-F)][Gly(cPr)][NMehhhLys(Me)]L[X113]; lactam 3-C) | 140 | 100 | 20 | 6080 | 13200 | 90 |  |  |  | 
7 | CC(C)C[C@@H]1NC(=O)[C@@H](N(C)C(=O)[C@@H](NC(=O)[C@@H]2C[C@@H](F)CN2C(=O)C2(C(F)(F)F)CC(F)(F)C2)C2CC2)CCCCCCCN(C)C(=O)[C@H](Cc2cc(Cl)ccc2-c2ccn3ccnc3c2)N(C)C1=O [Example 236] ({cBuCO(3,3-F2-1-CF3)}-[Pro(trans-4-F)][Gly(cPr)][NMehhhLys(Me)]L[X19]; lactam 3-C) |  | 10 |  |  | 7330 | 20 | 30 | 20 | 780 | 
8 | CC(C)C[C@@H]1NC(=O)[C@@H](N(C)C(=O)[C@@H](NC(=O)[C@@H]2C[C@@H](F)CN2C(=O)C2(C(F)(F)F)CC(F)(F)C2)C2CC2)CCCCCCCN(C)C(=O)[C@H](Cc2cc(Cl)ccc2-c2cnn(S(C)(=O)=O)c2)N(C)C1=O [Example 238] ({cBuCO(3,3-F2-1-CF3)}-[Pro(trans-4-F)][Gly(cPr)][NMehhhLys(Me)]L[X82]; lactam 3-C) | 30 | 10 | 20 | 990 | 17300 | 20 |  |  |  | 
9 | [2H]C([2H])([2H])n1cc(-c2ccc(Cl)cc2C[C@H]2C(=O)N(C)CCCCCCC[C@H](N(C)C(=O)[C@@H](NC(=O)[C@@H]3C[C@@H](F)CN3C(=O)C3(C(F)(F)F)CC(F)(F)C3)C3CC3)C(=O)N[C@@H](CC(C)C)C(=O)N2C)cn1 [Example 239] |  | 20 |  |  | 14300 | 20 | 20 | 20 | 420 | 
10 | CC(C)C[C@@H]1NC(=O)[C@@H](N(C)C(=O)[C@@H](NC(=O)[C@@H]2C[C@@H](F)CN2C(=O)C2(C(F)(F)F)CC(F)(F)C2)C2CC2)CCCCCCCN(C)C(=O)[C@H](Cc2cc(Cl)ccc2-c2nnc(C3CC3)o2)N(C)C1=O [Example 240] ({cBuCO(3,3-F2-1-CF3)}-[Pro(trans-4-F)][Gly(cPr)][NMehhhLys(Me)]L[X111]; lactam 3-C) |  | 10 | 20 | 140 | 8730 | 10 |  |  |  | 20
11 | CC(=O)N1CCC(Oc2ccc(Cl)cc2C[C@H]2C(=O)N(C)CCCCCCC[C@H](N(C)C(=O)[C@@H](NC(=O)[C@@H]3C[C@@H](F)CN3C(=O)C3(C(F)(F)F)CC(F)(F)C3)C3CC3)C(=O)N[C@@H](CC(C)C)C(=O)N2C)CC1 [Example 243] ({cBuCO(3,3-F2-1-CF3)}-[Pro(trans-4-F)][Gly(cPr)][NMehhhLys(Me)]L[X99]; lactam 3-C) | 50 | 50 | 20 | 690 | 13300 | 40 |  |  |  | 
12 | CC(C)C[C@@H]1NC(=O)[C@@H](N(C)C(=O)[C@@H](NC(=O)[C@@H]2C[C@@H](F)CN2C(=O)C2(C(F)(F)F)CC(F)(F)C2)C2CC2)CCCCCCCN(C)C(=O)[C@H](Cc2cc(Cl)ccc2-c2cnc3c(cnn3C)c2)N(C)C1=O [Example 250] ({cBuCO(3,3-F2-1-CF3)}-[Pro(trans-4-F)][Gly(cPr)][NMehhhLys(Me)]L[X16]; lactam 3-C) | 30 | 30 | 20 | 1620 | 5550 | 30 |  |  |  | 
13 | CC(C)C[C@@H]1NC(=O)[C@@H](N(C)C(=O)[C@@H](NC(=O)[C@@H]2C[C@@H](F)CN2C(=O)C2(C(F)(F)F)CC(F)(F)C2)C2CC2)CCCCCCCN(C)C(=O)[C@H](Cc2cc(Cl)ccc2-c2ccc3c(c2)ncn3C)N(C)C1=O [Example 251] ({cBuCO(3,3-F2-1-CF3)}-[Pro(trans-4-F)][Gly(cPr)][NMehhhLys(Me)]L[X30]; lactam 3-C) | 40 | 10 | 20 | 930 | 13900 | 10 |  |  |  | 
14 | CC(C)C[C@@H]1NC(=O)[C@@H](N(C)C(=O)[C@@H](NC(=O)[C@@H]2C[C@@H](F)CN2C(=O)C2(C(F)(F)F)CC(F)(F)C2)C2CC2)CCCCCCCN(C)C(=O)[C@H](Cc2cc(Cl)ccc2-c2cnn(C3CCS(=O)(=O)C3)c2)N(C)C1=O (stereo partly drawn) [Example 253] ({cBuCO(3,3-F2-1-CF3)}-[Pro(trans-4-F)][Gly(cPr)][NMehhhLys(Me)]L[X72]; lactam 3-C) |  | 40 |  |  | 9930 | 20 | 20 | 20 | 330 | 
15 | CC(C)C[C@@H]1NC(=O)[C@@H](N(C)C(=O)[C@@H](NC(=O)[C@@H]2C[C@@H](F)CN2C(=O)C2(C(F)(F)F)CC(F)(F)C2)C2CC2)CCCCCCCN(C)C(=O)[C@H](Cc2cc(Cl)ccc2-c2cnn(C3CS(=O)(=O)C3)c2)N(C)C1=O [Example 255] ({cBuCO(3,3-F2-1-CF3)}-[Pro(trans-4-F)][Gly(cPr)][NMehhhLys(Me)]L[X101]; lactam 3-C) |  | 40 |  |  | 15800 | 30 | 20 | 20 | 210 | 
16 | CC(C)C[C@@H]1NC(=O)[C@@H](N(C)C(=O)[C@@H](NC(=O)[C@@H]2C[C@@H](F)CN2C(=O)C2(C(F)(F)F)CC(F)(F)C2)C2CC2)CCCCCCCN(C)C(=O)[C@H](Cc2cc(Cl)ccc2-c2cnn(CCN3CCOCC3)c2)N(C)C1=O [Example 256] ({cBuCO(3,3-F2-1-CF3)}-[Pro(trans-4-F)][Gly(cPr)][NMehhhLys(Me)]L[X55]; lactam 3-C) |  | 10 |  |  | 13200 | 10 | 30 | 20 | 480 | 
17 | CC(C)C[C@@H]1NC(=O)[C@@H](N(C)C(=O)[C@@H](NC(=O)[C@@H]2C[C@@H](F)CN2C(=O)C2(C(F)(F)F)CC(F)(F)C2)C2CC2)CCCCCCCN(C)C(=O)[C@H](Cc2cc(Cl)ccc2-c2cnn(CCS(C)(=O)=O)c2)N(C)C1=O [Example 257] ({cBuCO(3,3-F2-1-CF3)}-[Pro(trans-4-F)][Gly(cPr)][NMehhhLys(Me)]L[X13]; lactam 3-C) |  | 10 |  |  | 13300 | 10 | 20 | 20 | 120 | 
